In brackets after ≈: the same amount, converted by molar mass.
Tested on: IL-17A expression
Assay: IL-17A inhibition assay in IL-17 luciferase-(LUCPorter) stable reporter cell line
Details: for Inhibition of IL-17A expression (%) Experiment-1 / Inhibition of IL-17A expression (%) Experiment-2 / Inhibition of IL-17A expression (%) Experiment-3: 6 hours; for expression of IL-17A (luciferase units): control group 2,582 units; for inhibition at 10 µg/mL / inhibition at 100 µg/mL / inhibition at 1000 µg/mL / IC50: Homo sapiens; for inhibition at 10 µg/mL / inhibition at 100 µg/mL / inhibition at 1000 µg/mL: read-out: Average Inhibition (%); for IC50: read-out: IC50 to inhibit the IL-17A expression by 50%

Row | SMILES | expression of IL-17A, % by the control (10 μg/ml) [% by the control] | Inhibition of IL-17A expression (%) Experiment-1 (10 μg/ml) [%] | Inhibition of IL-17A expression (%) Experiment-2 (10 μg/ml) [%] | Inhibition of IL-17A expression (%) Experiment-3 (10 μg/ml) [%] | expression of IL-17A (luciferase units) (10 μg/ml) | expression of IL-17A, % by the control (100 μg/ml) [% by the control] | Inhibition of IL-17A expression (%) Experiment-1 (100 μg/ml) [%] | Inhibition of IL-17A expression (%) Experiment-2 (100 μg/ml) [%] | Inhibition of IL-17A expression (%) Experiment-3 (100 μg/ml) [%] | expression of IL-17A (luciferase units) (100 μg/ml) | expression of IL-17A, % by the control (1,000 μg/ml) [% by the control] | Inhibition of IL-17A expression (%) Experiment-1 (1000 μg/ml) [%] | Inhibition of IL-17A expression (%) Experiment-2 (1000 μg/ml) [%] | Inhibition of IL-17A expression (%) Experiment-3 (1000 μg/ml) [%] | expression of IL-17A (luciferase units) (1,000 μg/ml) | inhibition at 10 µg/mL [%] | inhibition at 100 µg/mL [%] | inhibition at 1000 µg/mL [%] | IC50 [µg/mL]
1 | CO[C@]1(C)CC[C@@]23C[C@@H]1C(C)(C)[C@@H]2CC[C@H]3C [methyl cedryl ether, Methyl cedryl ether] | 96 | −6 | 4 | 4 | 2,479±136 units | 92 | −5 | 5 | 8 | 2,379±206 units | 74 | 48 | 18 | 26 | 1,921±239 units | 0.7 | 2.7 | 30.7 | 1130 (≈ 4.78 mM)
2 | CC(=O)C1=C(C)[C@@H]2C[C@@]3(C1)[C@H](C)CC[C@H]3C2(C)C [methyl cedryl ketone, Methyl cedryl ketone] | 87 | 0 | 1 | 13 | 2,248±194 units | 75 | 12 | 15 | 25 | 1,930±111 units | 34 | 78 | 58 | 66 | 866±106 units | 4.7 | 17.3 | 67.3 | 841 (≈ 3.41 mM)
3 | C[C@@H]1CC[C@H]2C(C)(C)[C@H]3C[C@@]12CC1OC13C (stereo partly drawn) [cedrene epoxide, Cedrene epoxide] | 100 | 11 | 4 | 0 | 2,591±458 units | 88 | 14 | 16 | 12 | 2,267±806 units | 54 | 60 | 56 | 46 | 1,382±87 units | 5 | 14 | 54 | 942 (≈ 4.27 mM)

Reference: US10307383B2, “Cosmetic composition for preventing or ameliorating hypersensitive skin comprising cedrol or derivatives thereof, or pharmaceutically acceptable salts thereof” (University of Seoul Industry Cooperation Foundation, priority 2017, dated 2019)
